Measurements reported in patent publication US11413278B2, “Compounds and methods for promoting stress resistance” (priority 2015, dated 2022).
Where two headings read alike, the source gives them in different places.

Legend:
FOXO3 = FOXO3 siRNA knockdown: dependency for H2O2-resistance; format: cell-based, human
WI-38 cells [1] = assay: Long-term effects on cell viability (5 days, ATP; morphology, PI imaging); format: cell-based; settings: 10 μM; for Luminescence signal for ATP measurement, day-1 Average / Luminescence signal for ATP measurement, day-2 Average / Luminescence signal for ATP measurement, day-3 Average / Luminescence signal for ATP measurement, day-4 Average / Luminescence signal for ATP measurement, day-5 Average / viability at 10 µM: Batch 1; for Luminescence signal for ATP measurement, day-1 Average / Luminescence signal for ATP measurement, day-2 Average / Luminescence signal for ATP measurement, day-3 Average / Luminescence signal for ATP measurement, day-4 Average / Luminescence signal for ATP measurement, day-5 Average: n = 6, day-0 luminescence = 320956 ± 24708; for viability at 10 µM: Homo sapiens, WI-38, 120 h, DMSO ctrl = 100.0%, read-out: ATP luminescence by day-5 normalized; for Luminescence signal for ATP measurement, day-5 Average / viability at 10 µM: day-5; for O = Potential toxicity / Q = Potential toxicity: human, 5 days;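 on Luminescence signal for ATP measurement, day-2 Average: compounds at 10 µM with ATP read daily over 5 days of treatment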;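 on Luminescence signal for ATP measurement, day-3 Average: compounds at 10 µM with ATP read daily over 5 days of treatment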;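 on Luminescence signal for ATP measurement, day-4 Average: compounds at 10 µM with ATP read daily over 5 days of treatment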;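 on Luminescence signal for ATP measurement, day-5 Average: compounds at 10 µM with ATP read daily over 5 days of treatment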
C. elegans = C. elegans lifespan assays (liquid and plate); format: in vivo, Caenorhabditis elegans; settings: for ILS at 60 µM / ILS at 66 µM: Caenorhabditis elegans; for O = Life span- extending scores in worms: score scale 0 to 2, 4 to 6 independent trials; for M = Lifespan-extending scores in worms: summary score
WI-38 cells [2] = settings: for No H2O2 stress treatment, at 10 uM (fold change): normalized ATP measurement; for Assay 1: H2O2-resistant: YES/NO, if NO, possibly due to repeated freezing/thawing of stocks
[3] = system: phosphorylated γH2A.X and TP53BP1; assay: DNA damage marker analysis (immuno-staining); settings: for activity at 10 µM: Homo sapiens, WI-38, 24 h; for P = Potential DNA-damaging / R = Potential DNA damaging: human, 24 h
In short: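 Immunofluorescence read-out for phospho-γH2A.X (Ser-139) and phospho-TP53BP1 (Ser-1778), with DAPI nuclear stain and automated imaging at 10×. WI-38 cells (~8,000 per well) were exposed to small molecules for 24 h after 24 h of culture, with doxorubicin (300 nM, 24 h) or H2O2 (700 μM, 3 h) as positive damage controls.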

[4] = in liquid, wild type, with FuDR, 1.0 × 10^9 bacteria/ml, read-out: relative change of mean lifespan vs control, Trial 1
[5] = in liquid, wild type, with FuDR, 2.5 × 10^9 bacteria/ml, read-out: relative change of mean lifespan vs control, Trial 2
[6] = on plate, CF512 temperature-sensitive sterile animals, without FuDR, 2.0 × 10^10 bacteria/ml, read-out: relative change of mean lifespan vs control, Trial 3
[7] = Assay 2(z), 1.0 × 10^9 bacteria/ml, wild type + FuDR (2012 July), read-out: Lifespan assay in liquid
[8] = Assay 3(aa), 2.5 × 10^9 bacteria/ml, wild type + FuDR, read-out: Lifespan assay in liquid
[9] = Assay 4(ab), 2.0 × 10^10 bacteria/ml, CF512 worms, no FuDR, read-out: Lifespan assay on plates
[10] = WI-38 cells, 10 μM, (*) = compromised ability to protect cells from H2O2, could be due to stability issue
[11] = asterisks indicate the loss of the ability to protect cells from H2O2 over time
[12] = read-out: Est. ED50, dose response 0.6-20 μM, H2O2-resistance
[13] = read-out: Experiment 1, H2A.X-P DNA damage foci staining (no H2O2 stress treatment), at 10 uM
[14] = read-out: Experiment 2, H2A.X-P DNA damage foci staining (no H2O2 stress treatment), at 10 uM
[15] = read-out: Experiment 2, H2A.X-P DNA damage foci staining (under H2O2 stress treatment), at 10 uM
[16] = read-out: Experiment 2, TP53BP1-P DNA damage foci staining (no H2O2 stress treatment), at 10 uM
[17] = read-out: Experiment 2, TP53BP1-P DNA damage foci staining (under H2O2 stress treatment), at 10 uM

Compound | I = FOXO3-dependency for H2O2-resistance (FOXO3; score) | I = FOXO3-dependency for H2O2-resistance (FOXO3; summary score) | Luminescence signal for ATP measurement, day-1 Average (WI-38 cells [1]) | Luminescence signal for ATP measurement, day-2 Average (WI-38 cells [1]) | Luminescence signal for ATP measurement, day-3 Average (WI-38 cells [1]) | Luminescence signal for ATP measurement, day-4 Average (WI-38 cells [1]) | Luminescence signal for ATP measurement, day-5 Average (WI-38 cells [1]) | viability at 10 µM (WI-38 cells [1]) [%] | O = Potential toxicity (WI-38 cells [1]) | Q = Potential toxicity (WI-38 cells [1]) | ILS at 60 µM (C. elegans; [4]) [%] | ILS at 60 µM (C. elegans; [5]) [%] | ILS at 60 µM (C. elegans; [6]) [%] | ILS at 66 µM (C. elegans; [7]) [%] | ILS at 66 µM (C. elegans; [8]) [%] | ILS at 66 µM (C. elegans; [9]) [%] | O = Life span- extending scores in worms (C. elegans) | M = Lifespan-extending scores in worms (C. elegans) | H2O2-resistant (WI-38 cells [2]; [10]) | No H2O2 stress treatment, at 10 uM (fold change) (WI-38 cells [2]; WI-38 cells) | other results
CCCN1C/C(=C\c2ccc(F)cc2)C(=O)/C(=C/c2ccc(F)cc2)C1 [O15] | 1 | 1 | 426828 | 601153 | 634740 | 904970 | 761533 | 74.2 | 1 | 0 | 38 | 6.6 | 14.6 | 38 | 6.6 | 14.6 | 1 (1 for lifespan extension observed in 2 trials) | 1 (1 for lifespan extension observed in 2 trials) | YES (*) | 0.98 | FOXO3-dependency for H2O2-resistance, at 10 uM - with H2O2, 1st experiment (FOXO3; 10 uM, experiment 1 (1st), with H2O2): 1st, YES;; FOXO3-dependency for H2O2-resistance, at 10 uM (experiment 3) - with & without H2O2 (FOXO3; 10 uM, experiment 3, with & without H2O2): YES; FOXO3-dependency for H2O2-resistance (experiment 3) (FOXO3; 10 uM, with & without H2O2, FOXO3 knockdown in WI-38 cells, YES = resistance reduced by at least 50%, partial = 25% to 50%): YES; FOXO3-dependency for H2O2-resistance, 1st experiment (FOXO3; 10 uM, with H2O2, FOXO3 knockdown in WI-38 cells, YES = resistance reduced by at least 50%, partial = 25% to 50%): YES;; Assay 16: FOXO3-dependency for H2O2-resistance (FOXO3; 10 uM, YES/NO): YES; Requirement of FOXO3 to promote H2O2-resistance (FOXO3; FOXO3 siRNA, at least 2 of 3 independent experiments): required FOXO3; Assay 1: H2O2-resistant (WI-38 cells [2]): YES; H2O2-resistant (WI-38 cells [2]; [11]): YES (*); EC50 (WI-38 cells [2]; [12]): 20 µM; activity at 10 µM [3, 13]: 90%; activity at 10 µM [3, 14]: 184%; activity at 10 µM [3, 15]: 58.4%; activity at 10 µM [3, 16]: 48.3%; activity at 10 µM [3, 17]: 251%; P = Potential DNA-damaging [3]: 0; R = Potential DNA damaging [3]: 0
O=C1NCCCc2cc(Cl)sc21 [O1] | 0 | 0 | 461478 | 722566 | 824266 | 1101026 | 977541 | 95.2 | 0 | 0 | 1.8 | -1.7 | 22.1 | 1.8 | -1.7 | 22.1 | 0 | 0 | YES | 0.92 | ILS at 60 µM (C. elegans; on plate, CF512 temperature-sensitive sterile animals, without FuDR, 1.0 × 10^11 bacteria/ml, read-out: relative change of mean lifespan vs control, Trial 4): -2.2%; ILS at 66 µM (C. elegans; Assay 5(ac), 1.0 × 10^11 bacteria/ml, CF512 worms, no FuDR, read-out: Lifespan assay on plates): -2.2%; Assay 1: H2O2-resistant (WI-38 cells [2]): YES; H2O2-resistant (WI-38 cells [2]; [11]): YES; EC50 (WI-38 cells [2]; derived from dose response curves, 0.6-20 uM, H2O2-resistance of WI-38 cells): 13.2 µM; EC50 (WI-38 cells [2]; [12]): 13.2 µM; activity at 10 µM [3, 13]: 102%; activity at 10 µM [3, 14]: 104%; activity at 10 µM [3, 15]: 216%; activity at 10 µM [3, 16]: 143%; activity at 10 µM [3, 17]: 336%; P = Potential DNA-damaging [3]: 0; R = Potential DNA damaging [3]: 0
